The values below come from patent US20260374767A1, “FUSED HETEROCYCLIC COMPOUNDS AND USES THEREOF” (Chengdu Zenitar Biomedical Technology Co., Ltd., priority 2022, published 2026).

Data set [1] deals with breast cancer MDA-MB-436. Put plainly: In-vivo pharmacodynamic study on subcutaneous xenograft tumor model of breast cancer MDA-MB-436. The conditions noted are these: for inhibitory effects on tumor growth compared to blank control group: all dose groups. Further details: species or system human tumor cells in NOD/SCID mice. How it is done:
Strain: NOD/SCID; Grade: SPF; Source: Beijing Vitron River Bio-technology Co., Ltd.
The cells were washed 3 times with pre-cooled PBS, centrifuged at 300 g for 10 min, collected, re-suspended in PBS, and counted with a blood cell counting chamber, and the cell concentration was adjusted. After cell collection, the cell suspension was pre-cooled on ice. 100 μL of the cell suspension was administered via subcutaneous injection into the dorsal flank of the mice, and the grouped treatment was started when the tumor volume reached 200-300 mm^3.
Animal assay: all viable experimental animals scheduled for assay; Assay time: All animals were weighed before the modeling for test grouping. After modeling, the mice were weighed once every 2 days, and the weight change of the mice was recorded in real time. Effective criteria: tumor volume (TV), relative tumor volume (RTV) and relative tumor growth rate of subcutaneously implanted tumor model. […] The calculation formula of tumor volume (TV) was: TV (mm^3)=a×b2×0.5, where a and b were the long diameter and short diameter, respectively.
The evaluation index for anti-tumor activity was the relative tumor growth rate T/C (%), and the calculation formula was as follows: […]
Where, TRTV is relative tumor volume of the treatment group; CRTV is relative tumor volume of the negative control group. […] The tumor inhibition rate (%) was calculated by the formula below: […]
All raw data within the facility were collected manually according to the experimental scheme and the relevant guidelines of the research institution, or gathered by using a data acquisition system. Manually collected data can be transcribed into software such as Excel for analysis and reporting. The data from each group were quantitative, and the experimental data for each group of animals in the tables were expressed as mean±standard deviation (Mean±SD). In the figures, the experimental data ware described as mean±standard error of the mean (Mean±SEM). Statistical analysis, including t-tests and survival analysis, was performed by using the software such as EXCEL and GraphPad Prism.
After 24 days of administration, the tumor-bearing mice were anesthetized and euthanized. The tumor tissues were dissected, weighed, and photographed, and the tumor inhibition rate was calculated.

The nature of data set [2]: Body weight in MDA-MB-436 xenograft study. Type of data set: in vivo, NOD/SCID mice. The conditions noted are these: for Body weight X ± SD, End: 24 days. The method, then:
Animal assay: all viable experimental animals scheduled for assay; Assay time: All animals were weighed before the modeling for test grouping. After modeling, the mice were weighed once every 2 days, and the weight change of the mice was recorded in real time. Effective criteria: tumor volume (TV), relative tumor volume (RTV) and relative tumor growth rate of subcutaneously implanted tumor model. The long diameter and short diameter of the tumor was measured with vernier calipers every 2 days, and the anti-tumor effects of the tested drug was dynamically observed. The calculation formula of tumor volume (TV) was: TV (mm^3)=a×b2×0.5, where a and b were the long diameter and short diameter, respectively.
Each group consisted of 6 mice, all of which are administered orally once daily. […] After 24 days of administration, the tumor-bearing mice were anesthetized and euthanized. The tumor tissues were dissected, weighed, and photographed, and the tumor inhibition rate was calculated.

Data set [3] has as its system MDA-MB-436 cells. The data set can be described thus: Anti-proliferative activity assay, BRCA-mutated MDA-MB-436 cells (CCK8). It counts as cell-based. The conditions noted are these: Homo sapiens, MDA-MB-436, BRCA-mutated, 72 h + 96 h. The text has this:
(§1) 2. Anti-Proliferative Activity Assay of Cell:

Data set [4] deals with DLD-1 cells. The data set can be described thus: Anti-proliferative activity assay, BRCA wild-type DLD-1 cells (CCK8). It counts as cell-based. The conditions noted are these: Homo sapiens, 72 h + 96 h.
From the text: as §1

Data set [5] is described as follows: Pharmacokinetic evaluation in Balb/c mice. Type of data set: in vivo. The conditions noted are these: mouse, plasma, 1 mg/kg, PO.
Data set [6] concerns breast cancer MDA-MB-436. Put plainly: Challenge experiment on subcutaneous xenograft tumor model of breast cancer MDA-MB-436 (large-volume tumors). The conditions noted are these: 1 mg/kg orally once per day.
The target in data set [7] is PARP1 (Homo sapiens, UniProt P09874). The data set can be described thus: Determination of PARP1 Enzyme. It counts as biochemical. The conditions noted are these: read-out: PARP-1 inhibition ratio. How it is done: 1.1 Determination of PARP1 Enzyme
PARP1, sequence (P09874 whole entry): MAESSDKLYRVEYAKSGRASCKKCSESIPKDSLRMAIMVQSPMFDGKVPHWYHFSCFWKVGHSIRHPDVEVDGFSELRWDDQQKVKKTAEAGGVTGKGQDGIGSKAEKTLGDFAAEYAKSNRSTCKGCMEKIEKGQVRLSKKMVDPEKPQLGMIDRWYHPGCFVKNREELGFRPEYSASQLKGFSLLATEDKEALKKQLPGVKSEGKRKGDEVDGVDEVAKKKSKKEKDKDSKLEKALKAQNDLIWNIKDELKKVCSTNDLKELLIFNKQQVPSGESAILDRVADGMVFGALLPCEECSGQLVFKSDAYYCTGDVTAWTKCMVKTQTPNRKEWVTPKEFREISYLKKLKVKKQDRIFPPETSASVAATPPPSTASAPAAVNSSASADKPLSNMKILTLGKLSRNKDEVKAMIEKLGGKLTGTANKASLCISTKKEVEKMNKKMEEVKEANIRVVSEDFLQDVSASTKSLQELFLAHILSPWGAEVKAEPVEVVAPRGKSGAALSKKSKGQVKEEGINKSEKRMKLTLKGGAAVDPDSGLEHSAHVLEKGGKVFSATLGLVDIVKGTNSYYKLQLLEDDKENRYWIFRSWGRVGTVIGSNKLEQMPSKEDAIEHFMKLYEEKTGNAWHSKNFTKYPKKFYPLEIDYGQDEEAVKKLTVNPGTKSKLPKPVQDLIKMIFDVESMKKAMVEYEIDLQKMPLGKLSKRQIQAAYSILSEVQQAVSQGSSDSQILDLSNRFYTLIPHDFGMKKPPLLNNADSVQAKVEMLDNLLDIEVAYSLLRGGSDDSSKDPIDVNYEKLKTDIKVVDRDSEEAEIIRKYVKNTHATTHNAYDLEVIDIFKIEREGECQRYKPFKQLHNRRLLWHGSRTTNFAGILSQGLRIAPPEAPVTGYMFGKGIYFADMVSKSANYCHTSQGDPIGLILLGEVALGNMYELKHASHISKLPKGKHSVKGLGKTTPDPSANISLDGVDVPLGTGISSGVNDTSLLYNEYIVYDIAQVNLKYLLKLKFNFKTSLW
1.1.1 Preparation of buffer solution: PBST: 1× PBS, 0.05% Tween-20; blocking solution: 1× PBS, 0.05% Tween-20, 5% BSA; reaction buffer: 50 mM Tris-HCl (pH 7.5), 0.005% Tween-20, 0.01% BSA.
1.1.2 Coating: A 50 ng/mL Histone coating solution was prepared by using 1× PBS, 25 μL of the coating solution was transferred to a 384-well reaction plate, and the reaction plate was coated overnight at 4 °C.
1.1.3 Washing: After the coating was completed, the coating solution was discarded, and the reaction plate was washed with the PBST solution by means of transferring 50 μL of the PBST to the 384-well reaction plate, letting it stand for 5 min, discarding the washing solution, refilling the reaction plate, and repeating the washing process 3 times. Finally, the reaction plate was tapped dry and the next step of blocking was proceeded with.
1.1.4 Blocking: 50 μL of the blocking solution was transferred to the 384-well reaction plate and set for 1 h.
Washing: After the blocking was completed, the blocking solution was discarded, the reaction plate was washed 3 times with the PBST solution according to the method in Step 2, and the reaction plate was tapped dry.
1.1.5 A 1,000× compound was prepared, 1 μL of the compound was transferred to a 96-well plate containing 199 μL of the reaction buffer, mixed well, and then 5 µL of the mixed compound was transferred to the 384-well reaction plate.
1.1.6 A 25/10× PARP1-DNA solution was prepared by using the reaction buffer, 10 μL of the PARP1-DNA solution was transferred to the 384-well reaction plate. For a negative control well, 10 μL of the DNA solution was transferred and the final concentration of PARP1 was 0.02 nM and that of DNA was 0.8 nM.
1.1.9 Washing: After the reaction was completed, the reaction liquid was discarded. The reaction plate was washed 3 times with the PBST solution according to the method in Step 2, and the reaction plate was tapped dry.
1.1.11 Washing: The anti-Poly/Mono-ADP Ribose Rabbit was discarded, the reaction plate was washed 3 times with the PBST solution according to the method in Step 2, and the reaction plate was tapped dry.
1.1.12 A 2,000× anti-rabbit IgG, HRP-linked Antibody was diluted with the blocking solution, 20 μL of the diluted anti-rabbit IgG, HRP-linked Antibody was added, and incubated at room temperature for 1 h.
1.1.13 Washing: The anti-rabbit IgG, HRP-linked Antibody was discarded, the reaction plate was washed 3 times with the PBST solution according to the method in Step 2, and the reaction plate was tapped dry.
1.1.14 Color developing: Femto-ECL Substrate A and Femto-ECL Substrate B were mixed in a 1:1 ratio, and 25 μL of the mixture was transferred to the 384-well reaction plate.
1.1.15 Reading: A relative light unit (RLU) was read with Envision.

Where [8] appears, read: 0.1 mg/kg orally once daily, 24 days.

By pIC50 is commonly meant the negative decadic logarithm of the IC50, by convention in mol/L. In general, CL/F refers to the apparent clearance, not corrected for the fraction that reaches the circulation.

pIC50: −log10 of the molar value.

Consider `CCc1cc2ncc(CN3CCN(c4ccc(C(=O)NC)nc4)CC3)cc2[nH]c1=O` [AZD5305, reference compound], for which, in data set [1] (24 days), the “inhibitory effects on tumor growth compared to blank control group” value is reported as “significant inhibitory effects on tumor growth”. For the same compound, in data set [2] (0.1 mg/kg orally once daily), the “Body weight X ± SD, End” value was 21.8 ± 1.0 g and the “Body weight X ± SD, Start” value was found to be 21.9 ± 0.7 g.
With `CCc1cc2ncc(CN3CC=C(c4ccc(C(=O)NC)nc4)CC3)cc2[nH]c1=O` [Compound 1], the pIC50 in data set [3] was 9.05. Further, in data set [4], the pIC50 is < 5.00. In data set [5], this compound had a CL/F of 0.167 mL/min/kg. Moreover, in data set [1] (setting [8]), the Tumor inhibition rate was determined as 82.18% and the “Tumor weight X ± SD” value is given as 0.39 ± 0.28 g. Moreover, the “Tumor volume X ± SD, End” value in data set [1] (0.1 mg/kg orally once daily, end, 24 days) is 304.9 ± 141.7 mm^3. Further, the “Tumor volume X ± SD, Start” value in data set [1] (0.1 mg/kg orally once daily, start) came to 271.4 ± 76.6 mm^3. In addition, the “inhibitory effects on tumor growth compared to blank control group” value in data set [1] (24 days) is “significant inhibitory effects on tumor growth”. Besides, in data set [2] (0.1 mg/kg orally once daily), the “Body weight X ± SD, End” value is listed as 21.6 ± 1.1 g and the “Body weight X ± SD, Start” value was 21.6 ± 0.3 g. In data set [6], the “tumor regression in large-volume tumors” value is “complete regression of tumors”.
For `[2H]C([2H])([2H])NC(=O)c1ccc(C2=CCN(Cc3cnc4cc(CC)c(=O)[nH]c4c3)CC2)cn1` [Compound 2], the pIC50 in data set [3] is 8.96; in data set [4], < 5.00.
Turning to `[2H]C(c1cnc2cc(CC)c(=O)[nH]c2c1)N1CC=C(c2ccc(C(=O)NC)nc2)CC1` (stereo not shown) [Compound 3], the pIC50 in data set [3] was 9.00; in data set [4], < 5.00.
In the case of `[2H]C([2H])([2H])NC(=O)c1ccc(C2=CCN(Cc3cnc4cc(C([2H])([2H])C([2H])([2H])[2H])c(=O)[nH]c4c3)CC2)cn1` [Compound 11, 1′-((7-(ethyl-d5)-6-oxo-5,6-dihydro-1,5-naphthyridin-3-yl)methyl)-N-(methyl-d3)-1′,2′,3′,6′-tet rahydro-[3,4′-bipyridine]-6-carboxamide], the pIC50 in data set [3] is 9.10; in data set [4], < 5.00.
As to `[2H]C([2H])([2H])C([2H])([2H])c1cc2ncc(CN3CC=C(c4ccc(C(=O)NC5CC5)nc4)CC3)cc2[nH]c1=O` [Compound 12, N-cyclopropyl-1′-((7-(ethyl-d5)-6-oxo-5,6-dihydro-1,5-naphthyridin-3-yl)methyl)-1′,2′,3′,6′-tet rahydro-[3,4′-bipyridine]-6-carboxamide], in data set [7], the inhibition at 0.01 µM came to 99.8% and the inhibition at 0.1 µM turned out to be 99.9%.
Regarding `[2H]C([2H])([2H])C([2H])([2H])c1nc2ccc(CN3CC=C(c4ccc(C(=O)NC)nc4)CC3)c(F)c2[nH]c1=O` [Compound 13, 1′-((2-(ethyl-d5)-5-fluoro-3-oxo-3,4-dihydroquinoxalin-6-yl)methyl)-N-methyl-1′,2′,3′,6′-tetra hydro-[3,4′-bipyridine]-6-carboxamide], in data set [7], the inhibition at 0.01 µM stood at 96.1% and the inhibition at 0.1 µM amounted to 98.5%.
On to `[2H]C([2H])([2H])C([2H])([2H])c1nc2ccc(CN3CC=C(c4ccc(C(=O)NC)nc4F)CC3)c(F)c2[nH]c1=O` [Compound 14, 1′-((2-(ethyl-d5)-5-fluoro-3-oxo-3,4-dihydroquinoxalin-6-yl)methyl)-2-fluoro-N-methyl-1′,2′,3′,6′-tetrahydro-[3,4′-bipyridine]-6-carboxamide], for which, in data set [7], the inhibition at 0.01 µM was found to be 98.9% and the inhibition at 0.1 µM stood at 99.1%.
Turning to `[2H]C([2H])([2H])Cc1cc2ncc(CN3CC=C(c4ccc(C(=O)NC)nc4)CC3)cc2[nH]c1=O` [Compound 16, 1′-((7-(ethyl-2,2,2-d3)-6-oxo-5,6-dihydro-1,5-naphthyridin-3-yl)methyl)-N-methyl-1′,2′,3′,6′-t etrahydro-[3,4′-bipyridine]-6-carboxamide], the pIC50 in data set [3] is 9.15; in data set [4] it was < 5.00.
Regarding `O=C(c1cc(Cc2n[nH]c(=O)c3ccccc23)ccc1F)N1CCN(C(=O)C2CC2)CC1` [Olaparib, reference compound], the “inhibitory effects on tumor growth compared to blank control group” value in data set [1] (24 days) is “significant inhibitory effects on tumor growth”. In data set [2] (100 mg/kg orally once daily), the “Body weight X ± SD, End” value was 21.7 ± 1.4 g and the “Body weight X ± SD, Start” value is reported as 21.9 ± 1.1 g.
